Source: US5519015A, “Carbapenem antibiotic compounds” (Zeneca Limited, priority 1992, dated 1996)
Values after ≈ are worked out from the molar mass of the structure shown.

Assays:
Type in all cases: cell-based
E. coli DCO = experiment: MIC by agar-dilution technique, Diagnostic Sensitivity Test, E. coli DCO; conditions: Escherichia coli, inoculum 10^4 CFU/spot
Text: (§1) The following results were obtained for representative compounds on a standard in vitro test system using Diagnostic Sensitivity Test. The antibacterial activity is described in terms of the minimum inhibitory concentration (MIC) determined by the agar-dilution technique with an inoculum size of 10^4 CFU/spot.

S. aureus Oxford = experiment: MIC by agar-dilution technique, Diagnostic Sensitivity Test, S. aureus Oxford; conditions: Staphylococcus aureus, inoculum 10^4 CFU/spot
Text: as §1

P. morganii I + 001 = experiment: MIC by agar-dilution technique, Diagnostic Sensitivity Test, P. morganii I + 001; conditions: Morganella morganii, inoculum 10^4 CFU/spot
Text: as §1

[1] = test system: Enterobacter cloacae P99-; experiment: MIC by agar-dilution technique, Diagnostic Sensitivity Test, Enterobacter cloacae P99-
Text: as §1

B. fragilis AMP S = experiment: MIC by agar-dilution technique, Diagnostic Sensitivity Test, B. fragilis AMP S; conditions: Bacteroides fragilis, inoculum 10^4 CFU/spot
Text: as §1

## C[C@@H](O)[C@H]1C(=O)N2C(C(=O)O)=C(S[C@@H]3CN[C@H](C(=O)Nc4csc(C(=O)O)c4)C3)[C@H](C)[C@H]12 [Example 1, (1R,5S,6S,8R,2'S,4'S)-2-(2-(2-Carboxy-4-thienylcarbamoyl)pyrrolidin-4-ylthio)-6-(1-hydroxyethyl)-1-methylcarbapenem-3-carboxylic acid]
E. coli DCO
  MIC: 8 ng/mL (≈ 0.0166 µM)
S. aureus Oxford
  MIC: 125 ng/mL (≈ 0.26 µM)
P. morganii I + 001
  MIC: 8 ng/mL
[1]
  MIC: 8 ng/mL (≈ 0.0166 µM)
B. fragilis AMP S
  MIC: 125 ng/mL (≈ 0.26 µM)
